“Also recorded” adds a separate entry of the source.
How the values were obtained:
Assay type in all cases: cell-based, human
TS organoids [1] = assay: Timothy Syndrome disease model, force generation in response to extracellular calcium; settings: Ca2+ overload with decreased force
hiPS-CM organoids [2] = assay: Calcium handling (Fluo-4 calcium transients) in organoids and FCTs; settings: for calcium transients after drug: organoids and FCTs, verapamil or 0.002 mM thapsigargin
Description: Calcium transients were analyzed using the Fluo-4 NW dye in RPMI+B27 media containing 5 μM blebbistatin to reduce movement artifacts, for 30 minutes at 37° C. Videos were acquired at a rate of 150 frames per second using a Pike F-032 camera controlled by the custom-designed, free-source SPLASSH software. Videos were analyzed in MATLAB using a custom script that calculated the temporal changes in calcium fluorescence intensity. Each frame was normalized to a baseline background region to give baseline corrected changes in minimum and maximum fluorescence values for each frame. This temporal change in fluorescence intensity was presented as a calcium transient trace. The calcium transient timing was determined as the peak-to-peak value of two successive beats as defined by the peak maxima. Calcium transient amplitude was determined by numerically integrating the area below the peak maxima relative to the baseline. […] The average rhythmicity was defined as the ratio of the parameter standard deviation to the parameter mean of the corresponding (control, constant, intensity) tissue group. Beats with parameter measurements falling outside two standard deviations from the average rhythmicity were classified as irregular.
(§1) Tissues (organoids and FCTs) within culture platforms were loaded with Fluo-4 NW (50% v/v, Life Technologies) in RPMI+B27 media containing 5 μM blebbistatin (Sigma) to reduce movement artifacts, for 30 minutes at 37° C. Videos were acquired at a rate of 150 frames per second using a Pike F-032 camera (Allied Vision Technologies) controlled by the custom designed, free-source SPLASSH software. Videos were analyzed in MATLAB using a custom script that calculated the temporal changes in calcium fluorescence intensity. Specifically, each frame was normalized to a baseline background region to give baseline-corrected changes in minimum and maximum fluorescence values for each frame. This temporal change in fluorescence intensity was presented as a calcium transient trace from which measurements were obtained.
(§2) Calcium transients were analyzed to measure the irregularity of various parameters as previously described. Briefly, the calcium transient “timing” was determined as the peak-to peak value of two successive beats as defined by the peak maxima. Calcium transient “amplitude” was determined by numerically integrating the area below the peak maxima relative to the baseline. […] The average rhythmicity was defined as the ratio of the parameter standard deviation to the parameter mean of the corresponding (control, constant, intensity) tissue group. Beats with parameter measurements falling outside two standard deviations from the average rhythmicity were classified as irregular.

TS organoids [3] = assay: Timothy Syndrome disease model, calcium transients and EADs
Description: Timothy Syndrome hiPSCs were generated and differentiated into CMs as previously described. Briefly, fibroblasts were isolated from patients with Timothy Syndrome (TS line) and a control healthy fibroblast line (#3, IMR90 cell line) and transduced by lipofection using established episomal vectors. […] 2 μM IWP-3 (Wnt inhibitor, #SML0533, Lot #102m4613V, Sigma-Aldrich) was added for days 5-11, in DF20 for days 5-7 and DF5 for day 7 onwards.
as §1, §2

hiPS-CM organoids [4] = assay: Dose response curves of drugs in engineered cardiac tissue (beat frequency, force, EC50); settings: for beat frequency (BPM): engineered cardiac micro-tissue, increasing drug concentrations
Description: Tissue contractility was measured by tracking the change in the projected tissue area as a function of time. Live cell, bright field videos were acquired at rates of 150 frames per second using a Pike F-032b (Allied Vision Technologies) camera controlled with the custom […] software. Acquired video frames were inverted and an automated intensity threshold was used to identify cell location in the video frame. First, a baseline time point in the video corresponding to a relaxed tissue state was selected. Absolute differences in cell area from the baseline frame were then calculated to create a time course of cell area dynamics as a function of time. The resulting time courses were analyzed with a native MATLAB automated peak finding algorithm to determine locations of maximum cell contraction indicated by the locations of local maxima in the time courses. Beat period lengths were determined from the length of time between pairs of local maxima. Beat frequencies were determined by inverting beat periods. Contraction amplitude relaxation times were measured from the length of time required for the time course to relax in amplitude from the peak contraction amplitude of the local maxima to the calculated relaxation amplitude (e.g. the […] time was the length of time elapsed from the local maxima until the contraction time course reached 10% of the local maximum contraction difference amplitude). Drugs were diluted in standard media (RPMI+B27). […] Tissue videos were captured≥5 minutes after each dose was administered, and processed using custom image processing software as discussed above. For chronotropic drugs, bright field videos were taken at each drug concentration so that measurements of the beat frequency could be determined as a function of drug concentration. For ionotropic drugs, tissues were placed in the organ bath and force measurements were recorded as previously described at each drug concentration so that the measurements of the change in force generated could be determined as a function of drug concentration. Dose-response curves for these parameters could be constructed by using Matlab to fit the Hill Equation for sigmoid curves to the data, to determine the corresponding EC50 value.

hiPS-CM organoids [5] = assay: Force measurements (twitch tension, organ bath); settings: intensity-trained organoids versus other organoids and FCTs

In the case of `CC(C)NCC(O)COc1cccc2ccccc12` (stereo not drawn) [propranolol], the “force generation in response to extracellular calcium” value (TS organoids [1]) is reported as “reversed some of these effects”.
For ryanodine, the response to ryanodine (hiPS-CM organoids [2]; 1 μmol/L, early-stage versus late-stage intensity trained organoids) was “intensity trained early-stage but not late-stage organoids respond”.
For `C/C=C(/C)C(=O)O[C@H]1C(C)=C2[C@H]([C@@H]1OC(=O)CCCCCCC)[C@@](C)(OC(C)=O)C[C@H](OC(=O)CCC)[C@@]1(O)[C@H]2OC(=O)[C@@]1(C)O` [thapsigargin], the “calcium transients after drug” value (hiPS-CM organoids [2]) was “calcium transients ceased quickly in intensity-trained organoids”.
With `CNC[C@H](O)c1ccc(O)c(O)c1` [epinephrine] the “incidence of EADs” value (TS organoids [3]) was “increased incidence of EADs”.
With `CC(C)NCC(O)c1ccc(O)c(O)c1` (stereo not drawn) [isoproterenol] the “beat frequency (BPM)” value (hiPS-CM organoids [4]) was “increases with increasing concentrations”, the “ionotropic, lusitropic and chronotropic responses” value (hiPS-CM organoids [4]; intensity-trained organoids) was “positive ionotropic (FIG. 23A), lusitropic (FIG. 23B), and chronotropic (FIG. 23C) responses; also recorded: dose-dependent effect on three functional properties” and the twitch tension (hiPS-CM organoids [5]) was “responded by increasing twitch tension”. The twitch tension (hiPS-CM organoids [5]; listed as Isoprenaline) was “significantly increased their twitch tension” and the “calcium transients, QT intervals, EADs under β-adrenergic stimulation” value (TS organoids [3]) was “increased calcium transients, prolonged QT intervals, and led to proarrhythmic EADs”.
`COc1ccc(CCN(C)CCCC(C#N)(c2ccc(OC)c(OC)c2)C(C)C)cc1OC` (stereo not drawn) [verapamil] was tested, and the “rescue of the TS phenotype” value (TS organoids [3]; therapeutic concentrations) was “rescued the phenotype” and the “calcium transients after drug” value (hiPS-CM organoids [2]) was “cessation of calcium transients in all tissues; also recorded: cessation of Ca2+ transients”.
For `Cn1c(=O)c2c(ncn2C)n(C)c1=O` [caffeine], the “release of Ca2+ by caffeine after nifedipine” value (TS organoids [3]) was “released Ca2+ back into the cytosol”.
`COc1cc(N)c(Cl)cc1C(=O)NC1CCN(CCCOc2ccc(F)cc2)CC1OC` (stereo not drawn) [cisapride] was tested, and the “beat frequency (BPM)” value (hiPS-CM organoids [4]) was “opposite effect”, the “incidence of EADs” value (TS organoids [3]) was “increased incidence of EADs” and the “proarrhythmic Early After Depolarizations” value (hiPS-CM organoids [2]; female cardiac organoids, 1 μM) was “increased proarrythmic Early After Depolarizations”. The “intracellular calcium transients, early after-depolarizations (EADs)” value (hiPS-CM organoids [2]; intensity-trained organoids, increasing concentrations) was “prolonged” and the proarrhythmic tendencies (hiPS-CM organoids [2]; other (not intensity-trained) organoids and FCTs) was “did not recapitulate proarrythmic tendencies”.
With `O=C1c2c(O)ccc(O)c2C(=O)c2c(NCCNCCO)ccc(NCCNCCO)c21` [mitoxantrone] the “beat frequency (BPM)” value (hiPS-CM organoids [4]) was “opposite effect”.

From US12441988B2, “Engineered adult-like human heart tissue” (THE TRUSTEES OF COLUMBIA UNIVERSITY IN THE CITY OF NEW YORK, priority 2015, dated 2025)
